Assay results from publication PMC11206778, “Preclinical Pharmacokinetic Study and Lung Penetration of a Coumarin Extracted from Zanthoxylum tingoassuiba” (Pharmaceutics, 2024).
Where two headings read alike, the source gives them in different places. Blank lines part the entries; values can stand above or below the molecule they belong to.

Assays:
[1] = system: arteries isolated from rats; set-up: method as in PMID 31711783, PMID 37149230; settings: cited from earlier work
[2] = Lung distribution in mice (AUC lung/AUC plasma ratio); format: in vivo; settings: male, Balb/c, mouse, read-out: Lung penetration factor (AUC inf lung/AUC inf plasma)
Protocol: The lung distribution experiment used Male Balb/c (~30 g). After intravenous bolus and inhalation administration of 15 mg/kg and 50 mg/kg, respectively, of 6-methoxyseselin, three animals were sacrificed at 0.5 h, 1 h, 2 h, and 4 h, each. The lung samples were removed, gently blotted dry, weighed, and frozen at −80 °C until processing. On the day of the analysis, tissue samples were allowed to thaw and were weighed, and 2 mL of methanol was added per gram of tissue. The tissues were homogenized for approximately 5 min, and the homogenates were then transferred to Eppendorf® tubes and centrifuged at 3500× g for 15 min at 4 °C. A volume of supernatant was then processed similarly to the plasma samples and analyzed by HPLC-DAD. The lung penetration was calculated using the AUC lung/AUC plasma ratio. The trapezoidal method was used to estimate both AUCs.

[3] = Long-term stability in mice plasma stored at −18 °C; format: in vitro ADME
Protocol: Stability assays were performed in triplicate with the QC samples (LQC and HQC) by adding 6-methoxyseselin to mice plasma. The stability after 30, 45, and 60 days was performed with samples stored at −18 °C. 6-methoxyseselin was considered stable in plasma for the period evaluated when the accuracy was within acceptable limits (RSE within ±15%).

[4] = Plasma pharmacokinetics study in mice (non-compartmental analysis, HPLC-DAD); format: in vivo, Balb/c mice; settings: mean ± SD; for k el: read-out: ke (converted)
Protocol: The pharmacokinetic analysis was carried out with Balb/c mice (~30 g) obtained from the Animal Facilities at Oswaldo Cruz Foundation (Fiocruz, Bahia, Brazil) and kept in a room with environmental control (22 ± 2 °C and 12:12 h light–dark cycle), and with free access to water and food until the day of the experiment. Animal care and handling procedures were in strict accordance with the recommendations in the Guide for the Care and Use of Laboratory Animals of the National Institute of Health and the Brazilian College of Animal Experimentation. The protocol was approved by the Institutional Animal Care and Use Committee of FIOCRUZ (CEUA/FIOCRUZ, permit number: L-IGM-013/2021).
The compound was administered to the mice (n = 3 per time point) by inhalation and intravenous routes at 50 and 15 mg/kg, respectively. The intravenous administration was conducted through the lateral tail vein, and the inhalation dosing was conducted using inhalation exposure chambers. The nebulizer device was operated according to the manufacturer’s specifications. The blood samples were collected 0.083, 0.25, 0.5, 0.75, 1, 2, and 4 h after both administrations. The blood samples were centrifuged for plasma separation (6000 rpm, 10 min, 8 °C) and stored at −18 °C until analysis.
The non-compartmental pharmacokinetic parameters of both studies were estimated using PKanalix® Suite 2020R1 software (Lixoft®, Antony, France). The determined PK parameters included the elimination rate constant (ke), the elimination half-life (t1/2), the area under the concentration–time curve (AUC) calculated by the linear trapezoidal rule, the mean residence time (MRT), the total clearance (CL), and the volume of distribution (Vd).

[5] = cited from earlier work
[6] = Balb/c, mouse, inhaled or intranasal, inhalation 50 mg/kg
[7] = Balb/c, mouse, intravenous 15 mg/kg

- Kp ([2]; inhaled, inhalation 50 mg/kg): 2.14
- Kp ([2]; intravenous 15 mg/kg): 1.45
- Stability in storage (verdict) ([3]; 60 days): unstable
- Stability in storage (verdict) ([3]; until day 30): stable
- MRT [4, 6]: 5.4 ± 2.1 h
- half-life [4, 6]: 198 ± 51.6 min
- k el [4, 6]: 5.83e-05 s⁻¹
- MRT [4, 7]: 3.23 ± 1.57 h
- clearance [4, 7]: 88.7 mL/min/kg
- half-life [4, 7]: 156 ± 43.8 min
- Vd ([4]; Balb/c, mouse, intravenous 15 mg/kg, read-out: Vd): 19.6 ± 1.57 L/kg
- k el [4, 7]: 7.5e-05 s⁻¹
- Cl ([4]; inhalation 50 mg/kg): 6.59 ± 2.34 L/h/kg
- Vd ([4]; inhalation 50 mg/kg): 18.79 ± 2.58 L/kg
SMILES: COc1cc2ccc(=O)oc2c2c1OC(C)(C)C=C2 [6-methoxyseselin]
- Vasorelaxation [1]: potent vasorelaxation

SMILES: CCCC1O[C@@H]2C[C@H]3[C@@H]4CCC5=CC(=O)C=C[C@]5(C)[C@H]4[C@@H](O)C[C@]3(C)[C@]2(C(=O)CO)O1 (stereo partly drawn) [budesonide]
- half-life [5]: 2 to 3.6 h
- Vd ([5]; reference not given, ref 22 follows in the same paragraph): 2.2 to 3.9 L/kg

SMILES: CC(C)(C)NCC(O)c1ccc(O)c(CO)c1 (stereo not drawn) [salbutamol]
- Vd [5]: 3 to 4 L/kg
